Measurements from patent publication US20190300842A1, “SYSTEMS AND METHODS FOR CONTINUOUSLY CULTURING MICROALGAE IN MIXOTROPHIC CONDITIONS” (HELIAE DEVELOPMENT, LLC, priority 2016, published 2019).
Where two headings read alike, the source gives them in different places.

Tested on: bacterial growth
Description: An experiment was conducted to compare a semi-continuous and continuous auxostat mixotrophic microalgae operation in an open outdoor bioreactor utilizing recycled media. The outdoor bioreactor system, protocols, and type of microalgae (Chlorella) was the same as described in Example 7. Different treatments were applied to the centrate resulting from membrane filter separation. The continuous media was treated with 14 g/L acetic acid. […] The media used for semi-continuous after each partial harvest was treated with 100% filtered ozone and stabilized by refrigeration at 4° C. After the first harvest, continuous treatment started in two of the four reactors. In the time between the continuous switch and the first partial harvest, non-recycled continuous feed media was used to maintain pH on the continuous cultures through the pH auxostat.

Q: Which “bacterial growth in centrate (quantity not named in Table 4)” value (acetic acid 5 g/L, 7 days) does the source give for `CC(=O)O` [Acetic acid, acetic acid] here?
A: 0.00

Q: And the “bacterial growth in centrate (quantity not named in Table 4)” value (acetic acid 5 g/L, 14 days)?
A: 0.00

Q: And the “bacterial growth in centrate (quantity not named in Table 4)” value (acetic acid 5 g/L, 21 days)?
A: 0.00

Q: And the “bacterial growth in centrate (quantity not named in Table 4)” value (acetic acid 10 g/L, 7 days)?
A: 0.00

Q: What about the “bacterial growth in centrate (quantity not named in Table 4)” value (acetic acid 10 g/L, 14 days) of the same compound?
A: 0.00

Q: And the “bacterial growth in centrate (quantity not named in Table 4)” value (acetic acid 10 g/L, 21 days)?
A: 0.00

Q: And the “bacterial growth in centrate (quantity not named in Table 4)” value (acetic acid 15 g/L, 7 days)?
A: 0.00

Q: And the “bacterial growth in centrate (quantity not named in Table 4)” value (acetic acid 15 g/L, 14 days)?
A: 0.00

Q: What about the “bacterial growth in centrate (quantity not named in Table 4)” value (acetic acid 15 g/L, 21 days) of the same compound?
A: 0.00

Q: What about the “period for which the centrate could be stabilized” value (addition of at least 5 g/L acetic acid) of the same compound?
A: > 21 days

Q: And the bacterial growth (treatments of 5 g/L acetic acid and above, up to 21 days)?
A: No bacterial growth was observed
